Molecular target: T1, human PTH1 receptor (Homo sapiens, UniProt Q03431)
T1 sequence (Q03431 27-593): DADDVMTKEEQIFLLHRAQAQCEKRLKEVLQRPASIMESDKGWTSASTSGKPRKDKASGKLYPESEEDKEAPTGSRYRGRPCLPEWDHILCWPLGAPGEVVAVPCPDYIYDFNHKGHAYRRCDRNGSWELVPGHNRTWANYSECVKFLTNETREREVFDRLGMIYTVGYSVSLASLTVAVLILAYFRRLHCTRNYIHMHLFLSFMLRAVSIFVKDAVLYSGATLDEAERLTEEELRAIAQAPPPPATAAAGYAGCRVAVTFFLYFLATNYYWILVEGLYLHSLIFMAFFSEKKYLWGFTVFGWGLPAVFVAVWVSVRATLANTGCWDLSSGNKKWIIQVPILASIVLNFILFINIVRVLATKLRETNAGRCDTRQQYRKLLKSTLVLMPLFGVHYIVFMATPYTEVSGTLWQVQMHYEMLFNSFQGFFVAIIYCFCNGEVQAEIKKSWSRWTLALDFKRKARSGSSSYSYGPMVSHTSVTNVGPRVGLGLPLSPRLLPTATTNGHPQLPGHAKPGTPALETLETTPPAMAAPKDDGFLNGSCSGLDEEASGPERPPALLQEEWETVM
Experiment: In vitro cAMP signal activity in HKRK-B7 cells (LLC-PK1 cells overexpressing the human PTH1 receptor)
Type: cell-based
Conditions: HKRK-B7 cells; compound at 1×10^−3 M; […]; 0.1 µM

Row | Compound | cAMP production activity (%)
1 | CC(=O)N1CCC(N(C(C)=O)c2ccc(/C=C/S(=O)(=O)N3CCC4(CC3)N=C(c3cccc(OC(F)(F)F)c3)NC4=O)c(C)c2)CC1 [Compound 1294, N-(1-Acetyl-piperidin-4-yl)-N-(3-methyl-4-{(E)-2-[4-oxo-2-(3-trifluoromethoxy-phenyl)-1,3,8-triaza-spiro[4.5]dec-1-ene-8-sulfonyl]-vinyl}-phenyl)-acetamide] | 76

Same assay, conditions: HKRK-B7 cells; compound at 1×10^−3 M; cAMP produced as percentage of that produced by hPTH(1-34) at 100 nM

Row | Compound | cAMP production activity (%)
2 | CNCc1cc(C)c(/C=C/S(=O)(=O)N2CCC3(CC2)N=C(C2CCC(CCC(F)(F)F)CC2)NC3=O)c(C)c1 (stereo not drawn) [Compound 1292, 8-[(E)-2-(2,6-dimethyl-4-methylaminomethyl-phenyl)-ethenesulfonyl]-2-[4-(3,3,3-trifluoro-propyl)-cyclohexyl]-1,3,8-triaza-spiro[4.5]dec-1-en-4-one] | 14
3 | CC[C@H]1CC[C@H](C2=NC3(CCN(S(=O)(=O)CCc4ccc(N)c(Cl)c4C)CC3)C(=O)N2)CC1 [Compound 1293, 8-[2-(4-Amino-3-chloro-2-methyl-phenyl)-ethanesulfonyl]-2-(4-ethyl-cyclohexyl)-1,3,8-triaza-spiro[4.5]dec-1-en-4-one] | 84
4 | CC[C@H]1CC[C@H](C2=NC3(CCN(S(=O)(=O)CCc4ccc(NC5=NCCS5)cc4C)CC3)C(=O)N2)CC1 [Compound 1295, 8-{2-[4-(4,5-Dihydro-thiazol-2-ylamino)-2-methyl-phenyl]-ethanesulfonyl}-2-(4-ethyl-cyclohexyl)-1,3,8-triaza-spiro[4.5]dec-1-en-4-one] | 73
5 | CC(=O)Nc1ccc(CCS(=O)(=O)N2CCC3(CC2)N=C(C2CCC(CCCCF)CC2)NC3=O)c(C)c1 (stereo not drawn) [Compound 1296, N-[4-(2-{2-[4-(4-Fluoro-butyl)-cyclohexyl]-4-oxo-1,3,8-triaza-spiro[4.5]dec-1-ene-8-sulfonyl}-ethyl)-3-methyl-phenyl]-acetamide] | 64
6 | Cc1cc(N(C)C(N)=O)cc(C)c1CCS(=O)(=O)N1CCC2(CC1)N=C(C1CCCC(C)C1)NC2=O (stereo not drawn) [Compound 1297, 1-(3,5-Dimethyl-4-{2-[2-(3-methyl-cyclohexyl)-4-oxo-1,3,8-triaza-spiro[4.5]dec-1-ene-8-sulfonyl]-ethyl}-phenyl)-1-methyl-urea] | 98
7 | Cc1cc(N(C)C(N)=O)cc(C)c1CCS(=O)(=O)N1CCC2(CC1)N=C(C1CC(C)(C)CC(C)(C)C1)NC2=O [Compound 1298, 1-(3,5-Dimethyl-4-{2-[4-oxo-2-(3,3,5,5-tetramethyl-cyclohexyl)-1,3,8-triaza-spiro[4.5]dec-1-ene-8-sulfonyl]-ethyl}-phenyl)-1-methyl-urea] | 117
8 | Cc1cc(N2C(=O)NC(CO)C2=O)cc(C)c1CCS(=O)(=O)N1CCC2(CC1)N=C([C@H]1CC[C@H](C)CC1)NC2=O (stereo partly drawn) [Compound 1299, 3-(3,5-Dimethyl-4-{2-[2-(4-methyl-cyclohexyl)-4-oxo-1,3,8-triaza-spiro[4.5]dec-1-ene-8-sulfonyl]-ethyl}-phenyl)-5-hydroxymethyl-imidazolidine-2,4-dione] | 87
9 | Cc1cc(CN(C)C(N)=O)cc(C)c1/C=C/S(=O)(=O)N1CCC2(CC1)N=C(C1CCC(CCC(F)(F)F)CC1)NC2=O (stereo not drawn) [Compound 1300, 1-[3,5-Dimethyl-4-((E)-2-{4-oxo-2-[4-(3,3,3-trifluoro-propyl)-cyclohexyl]-1,3,8-triaza-spiro[4.5]dec-1-ene-8-sulfonyl}-vinyl)-benzyl]-1-methyl-urea] | 81
10 | Cc1cc(CN(C)C(N)=O)cc(C)c1/C=C/S(=O)(=O)N1CCC2(CC1)N=C(C1CCC(C)CC1)NC2=O (stereo not drawn) [Compound 1301, 1-(3,5-dimethyl-4-{(E)-2-[2-(4-methyl-cyclohexyl)-4-oxo-1,3,8-triaza-spiro[4.5]dec-1-ene-8-sulfonyl]-vinyl}-benzyl)-1-methyl-urea] | 49
11 | Cc1cc(N(C)C(N)=O)cc(C)c1CCS(=O)(=O)N1CCC2(CC1)N=C(CCCCCCCC(F)(F)C(F)(F)F)NC2=O [Compound 1302, 1-(3,5-dimethyl-4-{2-[4-oxo-2-(8,8,9,9,9-pentafluoro-nonyl)-1,3,8-triaza-spiro[4.5]dec-1-ene-8-sulfonyl]-ethyl}-phenyl)-1-methyl-urea] | 95
12 | Cc1cc(N(C)C(N)=O)cc(C)c1/C=C/S(=O)(=O)N1CCC2(CC1)N=C(CCCCCCCC(F)(F)C(F)(F)F)NC2=O [Compound 1303, 1-(3,5-dimethyl-4-{(E)-2-[4-oxo-2-(8,8,9,9,9-pentafluoro-nonyl)-1,3,8-triaza-spiro[4.5]dec-1-ene-8-sulfonyl]-vinyl}-phenyl)-1-methyl-urea] | 102
13 | Cc1cc(N(C)C(N)=O)cc(C)c1/C=C/S(=O)(=O)N1CCC2(CC1)N=C(CCCCCCCCC(F)(F)F)NC2=O [Compound 1304, 1-(3,5-dimethyl-4-{(E)-2-[4-oxo-2-(9,9,9-trifluoro-nonyl)-1,3,8-triaza-spiro[4.5]dec-1-ene-8-sulfonyl]-vinyl}-phenyl)-1-methyl-urea] | 107
14 | Cc1cc(N(C)C(N)=O)cc(C)c1/C=C/S(=O)(=O)N1CCC2(CC1)N=C(c1cccc(SC(F)(F)F)c1)NC2=O [Compound 1305, 1-(3,5-dimethyl-4-{(E)-2-[4-oxo-2-(3-trifluoromethylsulfanyl-phenyl)-1,3,8-triaza-spiro[4.5]dec-1-ene-8-sulfonyl]-vinyl}-phenyl)-1-methyl-urea] | 138
15 | Cc1cc(N(C)C(N)=O)cc(C)c1CCS(=O)(=O)N1CCC2(CC1)N=C(c1cccc(SC(F)(F)F)c1)NC2=O [Compound 1306, 1-(3,5-dimethyl-4-{2-[4-oxo-2-(3-trifluoromethylsulfanyl-phenyl)-1,3,8-triaza-spiro[4.5]dec-1-ene-8-sulfonyl]-ethyl}-phenyl)-1-methyl-urea] | 159
16 | Cc1cc(N(C)C(N)=O)cc(C)c1/C=C/S(=O)(=O)N1CCC2(CC1)N=C(CCCCCCCCCCCO)NC2=O [Compound 1307, 1-(4-{(E)-2-[2-(11-hydroxy-undecyl)-4-oxo-1,3,8-triaza-spiro[4.5]dec-1-ene-8-sulfonyl]-vinyl}-3,5-dimethyl-phenyl)-1-methyl-urea] | 116
17 | Cc1cc(N(C)C(N)=O)cc(C)c1/C=C/S(=O)(=O)N1CCC2(CC1)N=C(CCCCCCCCCCCNC(=O)OC(C)(C)C)NC2=O [Compound 1308, [11-(8-{(E)-2-[2,6-dimethyl-4-(1-methyl-ureido)-phenyl]-ethenesulfonyl}-4-oxo-1,3,8-triaza-spiro[4.5]dec-1-en-2-yl)-undecyl]-carbamic acid tert-butyl ester] | 102
18 | Cc1cc(N(C)C(N)=O)cc(C)c1/C=C/S(=O)(=O)N1CCC2(CC1)N=C(CCCCCCCCCO)NC2=O [Compound 1309, 1-(4-{(E)-2-[2-(9-hydroxy-nonyl)-4-oxo-1,3,8-triaza-spiro[4.5]dec-1-ene-8-sulfonyl]-vinyl}-3,5-dimethyl-phenyl)-1-methyl-urea] | 109

From patent US9169254B2, “Spiroimidazolone derivative” (Chugai Seiyaku Kabushiki Kaisha, priority 2009, dated 2015)
